The results in this text go back to patent US20160083400A1, “TRICYCLIC GUANIDINE DERIVATIVE” (Sunovion Pharmaceuticals Inc., priority 2014, published 2016).

By IC50 is commonly meant the concentration at which inhibition is half-maximal. A higher IC50 goes with a need for much substance.

For the test, the target named is PDE1B (Homo sapiens, UniProt Q01064). Description: In vitro HTRF PDE1 inhibition assay (PDE1B). The test is classed as biochemical. The following applies: 100 nM cyclic GMP, calmodulin, 45 minutes at 37° C. (TR-FRET usually uses a lanthanide donor and a delayed reading to cut background.)
PDE1B, sequence (Q01064 whole entry): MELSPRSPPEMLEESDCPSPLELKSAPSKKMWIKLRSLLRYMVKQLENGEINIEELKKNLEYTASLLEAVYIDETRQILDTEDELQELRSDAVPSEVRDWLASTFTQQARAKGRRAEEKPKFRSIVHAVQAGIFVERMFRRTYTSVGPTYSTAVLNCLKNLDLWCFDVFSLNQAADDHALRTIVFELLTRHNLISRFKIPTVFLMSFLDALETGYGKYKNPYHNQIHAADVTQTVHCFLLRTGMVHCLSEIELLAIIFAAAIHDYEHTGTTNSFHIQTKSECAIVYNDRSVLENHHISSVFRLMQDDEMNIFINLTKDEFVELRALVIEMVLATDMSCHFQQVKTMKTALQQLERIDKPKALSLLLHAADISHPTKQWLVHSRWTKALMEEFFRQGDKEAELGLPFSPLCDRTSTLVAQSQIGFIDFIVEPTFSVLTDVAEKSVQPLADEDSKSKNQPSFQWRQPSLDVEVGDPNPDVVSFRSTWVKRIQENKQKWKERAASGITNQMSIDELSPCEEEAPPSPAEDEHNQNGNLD
Source text: The HTRF PDE1 assay utilized the HTRF technology, which is based on the competition between unlabeled cyclic nucleotide and cyclic nucleotide labeled with XL665 for the binding to cyclic nucleotide-specific antibody labeled with cryptate. The HTRF signal is thus inversely proportional to the concentration of cyclic nucleotide being measured. Since phosphodiesterases break down cyclic nucleotides the HTRF signal was used to determine PDE activity.
The Cisbio cGMP HTRF assay kit (Cat no: 62GM2PEC) was utilized. Cyclic GMP was diluted to 200 nM in HTRF assay buffer (1 mM CaCl2, 10 mM MgCl2, 10 mM Tris-HCl, 0.1% BSA, pH7.4). […] PDE (1A3, 1B or 1C) was diluted to 2× working concentration in HTRF assay buffer with 4 μg/ml Calmodulin, and 10 μl was added to initiate the reaction. The plate was then incubated for 45 minutes at 37° C. d2-Labelled cyclic GMP and anti-cGMP cryptate were diluted in 50 mM phosphate buffer, 0.8M KF, 1% Triton X100, 0.2% BSA, pH7.0. Following incubation 10 μl d2-cGMP, then 10 μl anti cGMP cryptate were added to each well and the plate was incubated for 45 minutes at rt. The plate was then read on Perkin Elmer Victor at 2 different FRET readings ex/emm 340 nm/665 nm and 340 nm/615 nm.
`O=c1c2cnn(C3CCCC3)c2nc2n1CCC(c1ccncc1)N2` (centres unmarked) [Example 3] showed an IC50 of 1 to 10 µM.

The molecule `COc1cccc(C2CCn3c(nc4c(cnn4C4CCCC4)c3=O)N2)c1` (centres unmarked) [Example 5] yielded an IC50 of 10 to 100 µM.

`COc1cc(C2CCn3c(nc4c(cnn4C(C)C)c3=O)N2)ccc1F` (centres unmarked) [Example 11] gave an IC50 of less than 1 µM.

Consider `Cc1ccc(C2CCn3c(nc4c(cnn4C(C)C)c3=O)N2)cn1` (centres unmarked) [Example 12], for which the IC50 is 1 to 10 µM.

Molecule `COc1ccc(CC2CCn3c(nc4c(cnn4C(C)C)c3=O)N2)cc1` (centres unmarked) [Example 13] had an IC50 of less than 1 µM.

The molecule `O=c1c2cnn(C3CC3)c2nc2n1CCC(c1ccc(Cl)cc1)N2` (centres unmarked) [Example 15] displayed a 50% inhibitory concentration (IC50) of less than 1 µM.

In the case of `COc1ccc(CC2CCn3c(nc4c(cnn4C4CCOCC4)c3=O)N2)cc1` (centres unmarked) [Example 16], the IC50 was less than 1 µM.

In turn, `O=c1c2cnn(C3CCOCC3)c2nc2n1CCC(Cc1ccc(Cl)cc1)N2` (centres unmarked) [Example 17] yielded an IC50 of less than 1 µM.

Turning to `Cc1ncc(C2CCn3c(nc4c(cnn4C(C)C)c3=O)N2)cn1` (centres unmarked) [Example 25], the half-maximal inhibitory concentration (IC50) lay within 1 to 10 µM.

Regarding `Cc1cc(C2CCn3c(nc4c(cnn4C(C)C)c3=O)N2)ccn1` (centres unmarked) [Example 26], the IC50 lay in the range of 1 to 10 µM.

`CC(C)n1ncc2c(=O)n3c(nc21)N[C@H](c1ccc(Cl)cc1)CC3` [Example 28] gave an IC50 of 1 to 10 µM.

`CC(C)n1ncc2c(=O)n3c(nc21)NC(c1cccc(Cl)c1)CC3` (centres unmarked) [Example 30] showed a 50% inhibitory concentration (IC50) of less than 1 µM.

Molecule `CC(C)n1ncc2c(=O)n3c(nc21)NC(c1ccccc1Cl)CC3` (centres unmarked) [Example 31] registered an IC50 of less than 1 µM.

The molecule `CC(C)n1ncc2c(=O)n3c(nc21)NC(c1ccccc1)CC3` (centres unmarked) [Example 32] came in with an IC50 of less than 1 µM.

As to `Cc1ccc(CC2CCn3c(nc4c(cnn4C(C)C)c3=O)N2)cn1` (centres unmarked) [Example 33], the IC50 lay in the range of 1 to 10 µM.

Regarding `CCn1ncc2c(=O)n3c(nc21)NC(c1ccc(Cl)cc1)CC3` (centres unmarked) [Example 34], the IC50 was less than 1 µM.

On to `CCCn1ncc2c(=O)n3c(nc21)NC(c1ccc(Cl)cc1)CC3` (centres unmarked) [Example 35], for which the half-inhibitory concentration (IC50) is less than 1 µM.

In turn, `CCC(CC)n1ncc2c(=O)n3c(nc21)NC(c1ccc(Cl)cc1)CC3` (centres unmarked) [Example 36] came in with an IC50 of less than 1 µM.

With `O=c1c2cnn(CC3CC3)c2nc2n1CCC(c1ccc(Cl)cc1)N2` (centres unmarked) [Example 37], the IC50 was less than 1 µM.

`O=c1c2cnn(CC(F)(F)F)c2nc2n1CCC(c1ccc(Cl)cc1)N2` (centres unmarked) [Example 38] displayed an IC50 of less than 1 µM.

`O=c1c2cnn(C3CCC(F)(F)CC3)c2nc2n1CCC(c1ccc(Cl)cc1)N2` (centres unmarked) [Example 39] displayed an IC50 of 1 to 10 µM.

As to `O=c1c2cnn(C3CCCC3)c2nc2n1CC[C@H](c1ccc(Cl)cc1)N2` [Example 40], the IC50 was less than 1 µM.

For `O=c1c2cnn(C3CCCC3)c2nc2n1CC[C@@H](c1ccc(Cl)cc1)N2` [Example 41], the IC50 lay within 1 to 10 µM.

The molecule `Cc1ccc(CC2CCn3c(nc4c(cnn4C4CCCC4)c3=O)N2)cn1` (centres unmarked) [Example 42] yielded an IC50 of 1 to 10 µM.

Molecule `O=c1c2cnn(C3CCOCC3)c2nc2n1CCC(c1ccc(Cl)cc1)N2` (centres unmarked) [Example 43] came in with an IC50 of less than 1 µM.

Take `O=c1c2cnn(C3CCC3)c2nc2n1CCC(c1ccc(Cl)cc1)N2` (centres unmarked) [Example 44]: the IC50 is less than 1 µM.

On to `CC(C)(C)n1ncc2c(=O)n3c(nc21)NC(c1ccc(Cl)cc1)CC3` (centres unmarked) [Example 45], for which the IC50 lay in the range of 10 to 100 µM.

Regarding `COc1cccc(C2CCn3c(nn4c(C(C)C)ncc4c3=O)N2)c1` (centres unmarked) [Example 47], the IC50 was less than 1 µM.

Take `COc1cc(C2CCn3c(nn4c(C(C)C)ncc4c3=O)N2)ccc1F` (centres unmarked) [Example 48]: the half-maximal inhibitory concentration (IC50) is less than 1 µM.

Regarding `CC(C)c1ncc2c(=O)n3c(nn12)N[C@H](c1ccc(Cl)cc1)CC3` [Example 49], the IC50 is 1 to 10 µM.

Regarding `CC(C)c1ncc2c(=O)n3c(nn12)NC(c1ccc(C(F)(F)F)cc1)CC3` (centres unmarked) [Example 50], the IC50 is less than 1 µM.

In turn, `CC(C)c1ncc2c(=O)n3c(nn12)NC(c1ccc(Cl)cn1)CC3` (centres unmarked) [Example 51] showed an IC50 of less than 1 µM.

Turning to `CC(C)c1ncc2c(=O)n3c(nn12)NC(C1CCCCC1)CC3` (centres unmarked) [Example 53], the IC50 is less than 1 µM.

As to `COc1ccc(C2CCn3c(nn4c(C(C)C)ncc4c3=O)N2)cc1` (centres unmarked) [Example 54], the IC50 was less than 1 µM.

As for `O=c1c2cnc(C3CCOCC3)n2nc2n1CCC(c1cccc(Cl)c1)N2` (centres unmarked) [Example 56], the IC50 is less than 1 µM.

In turn, `COc1ccc(CC2CCn3c(nn4c(C5CCOCC5)ncc4c3=O)N2)cc1` (centres unmarked) [Example 58] came in with an IC50 of less than 1 µM.

In the case of `O=c1c2cnc(C3CCOCC3)n2nc2n1CCC(Cc1ccc(Cl)cc1)N2` (centres unmarked) [Example 59], the IC50 was less than 1 µM.

Molecule `O=c1c2cnc(C3CCCC3)n2nc2n1CCC(c1ccc(Cl)cc1)N2` (centres unmarked) [Example 60] displayed an IC50 of less than 1 µM.

Regarding `O=c1c2cnc(C3CCCC3)n2nc2n1CC[C@@H](c1ccc(Cl)cc1)N2` [Example 62], the concentration for half-maximal inhibition (IC50) was less than 1 µM.

The molecule `O=c1c2cnc(C3CCC3)n2nc2n1CCC(c1ccc(Cl)cc1)N2` (centres unmarked) [Example 63] came in with a 50% inhibitory concentration (IC50) of less than 1 µM.

For the molecule `O=c1c2cnc(C3CCC3)n2nc2n1CCC(c1ccc(C(F)(F)F)cc1)N2` (centres unmarked) [Example 64], the half-maximal inhibitory concentration (IC50) was less than 1 µM.

Take `O=c1c2cnc(C3CCC3)n2nc2n1CCC(Cc1ccc(Cl)cc1)N2` (centres unmarked) [Example 66]: the IC50 is less than 1 µM.

The molecule `O=c1c2cnc(C3CC3)n2nc2n1CCC(c1ccc(Cl)cc1)N2` (centres unmarked) [Example 67] displayed an IC50 of less than 1 µM.

Molecule `CC(C)(C)c1ncc2c(=O)n3c(nn12)NC(c1ccc(Cl)cc1)CC3` (centres unmarked) [Example 68] gave an IC50 of less than 1 µM.

`Cc1cnc(CC2CCn3c(nc4c(cnn4C4CCCC4)c3=O)N2)nc1` (centres unmarked) [Example 70, 1-Cyclopentyl-8-[(5-methyl-2-pyrimidinyl)methyl]-6,7,8,10-tetrahydropyrazolo[3,4-d]pyrimido[1,2-a]pyrimidin-4(1H)-one] showed an IC50 of 1 to 10 µM.

Turning to `Cc1ncc(CC2CCn3c(nc4c(cnn4C4CCCC4)c3=O)N2)cn1` (centres unmarked) [Example 71], the IC50 is 1 to 10 µM.

With `Cc1ncc(CC2CCn3c(nc4c(cnn4C(C)C)c3=O)N2)cn1` (centres unmarked) [Example 72], the IC50 was in the range of 1 to 10 µM.

With `Cc1cnc(CC2CCn3c(nc4c(cnn4C(C)C)c3=O)N2)nc1` (centres unmarked) [Example 73], the IC50 was in the range of 1 to 10 µM.

In turn, `O=c1c2cnn(C3CCOCC3)c2nc2n1CC(c1ccc(Cl)cc1)N2` (centres unmarked) [Example 75] gave an IC50 of less than 1 µM.

For `O=c1c2cnn(C3CCOCC3)c2nc2n1CC(c1ccc(F)cc1)N2` (centres unmarked) [Example 76], the IC50 is less than 1 µM.

On to `COc1ccc([C@H]2CCn3c(nn4c(C(C)C)ncc4c3=O)N2)cc1` [Example 85], for which the IC50 is less than 1 µM.

`N#Cc1ccc(C2Cn3c(nc4c(cnn4C4CCOCC4)c3=O)N2)cc1` (centres unmarked) [Example 86, 4-[4-Oxo-1-(tetrahydro-2H-pyran-4-yl)-4,6,7,8-tetrahydro-1H-imidazo[1,2-a]pyrazolo[3,4-d]pyrimidin-7-yl]benzonitrile] came in with an IC50 of less than 1 µM.

`CC(C)c1ncc2c(=O)n3c(nn12)NC(c1ccc(C#N)cc1)CC3` (centres unmarked) [Example 91]: the IC50 was less than 1 µM.

As for `CC(C)c1ncc2c(=O)n3c(nn12)NC(c1ccc(C#N)cn1)CC3` (centres unmarked) [Example 92], the IC50 is less than 1 µM.

For `N#Cc1ccc(C2CCn3c(nn4c(C5CCOCC5)ncc4c3=O)N2)cc1` (centres unmarked) [Example 93], the IC50 is less than 1 µM.

Take `N#Cc1cccc(C2CCn3c(nn4c(C5CCOCC5)ncc4c3=O)N2)c1` (centres unmarked) [Example 94]: the IC50 is less than 1 µM.

As to `N#Cc1ccc(C2CCn3c(nn4c(C5CCC5)ncc4c3=O)N2)cc1` (centres unmarked) [Example 95], the IC50 was less than 1 µM.

As to `Cc1ccc([C@@H]2CN3C(=O)c4cnc(C(C)C)n4NC3=N2)cc1` [Example 97, (2R)-8-Isopropyl-2-(4-methylphenyl)-2,10-dihydro-3H,5H-diimidazo[2,1-c:5′,1′-f][1,2,4]triazin-5-one], the half-inhibitory concentration (IC50) was less than 1 µM.

`O=c1c2cnc(C3CCOCC3)n2nc2n1CC[C@H](c1ccc(Cl)cc1C(F)(F)F)N2` [Example 122] came in with an IC50 of less than 1 µM.

On to `O=c1c2cnc(C3CCOCC3)n2nc2n1CC[C@@H](c1ccc(Cl)cc1C(F)(F)F)N2` [Example 123], for which the IC50 is 1 to 10 µM.

In turn, `O=c1c2cnc(C3CCOCC3)n2nc2n1CC[C@@H](c1ccc(Cl)cc1F)N2` [Example 124] yielded an IC50 of 1 to 10 µM.

Consider `O=c1c2cnc(C3CCOCC3)n2nc2n1CC[C@H](c1ccc(Cl)cc1F)N2` [Example 125], for which the IC50 is less than 1 µM.

In turn, `O=c1c2cnc(C3CCOCC3)n2nc2n1CC[C@@H](c1cccc(Cl)c1)N2` [Example 126] had an IC50 of less than 1 µM.

`O=c1c2cnc(C3CCOCC3)n2nc2n1CC[C@H](c1cccc(Cl)c1)N2` [Example 127] gave an IC50 of less than 1 µM.

`COc1cccc([C@H]2CCn3c(nn4c(C5CCOCC5)ncc4c3=O)N2)c1` [Example 128] yielded an IC50 of less than 1 µM.

Molecule `COc1cccc([C@@H]2CCn3c(nn4c(C5CCOCC5)ncc4c3=O)N2)c1` [Example 129] registered an IC50 of less than 1 µM.

In turn, `COc1cncc([C@H]2CCn3c(nn4c(C5CCCC5)ncc4c3=O)N2)c1` [Example 130] displayed a half-inhibitory concentration (IC50) of less than 1 µM.

The molecule `COc1cncc([C@@H]2CCn3c(nn4c(C5CCCC5)ncc4c3=O)N2)c1` [Example 131] yielded an IC50 of less than 1 µM.

`Cc1cncc([C@H]2CCn3c(nn4c(C5CCCC5)ncc4c3=O)N2)c1` [Example 132] gave an IC50 of less than 1 µM.

`Cc1cncc([C@@H]2CCn3c(nn4c(C5CCCC5)ncc4c3=O)N2)c1` [Example 133] displayed an IC50 of less than 1 µM.

As for `O=c1c2cnc(C3CCCC3)n2nc2n1CC[C@@H](c1cncc(Cl)c1)N2` [Example 134], the 50% inhibitory concentration (IC50) is less than 1 µM.

Turning to `O=c1c2cnc(C3CCCC3)n2nc2n1CC[C@H](c1cncc(Cl)c1)N2` [Example 135], the IC50 was less than 1 µM.

With `CC(C)c1ncc2n1NC1=N[C@H](c3ccc(Cl)cc3)CN1C2=O` [Example 136, (2R)-2-(4-Chlorophenyl)-8-isopropyl-2,10-dihydro-3H,5H-diimidazo[2,1-c:5′,1′-f][1,2,4]triazin-5-one], the half-maximal inhibitory concentration (IC50) was less than 1 µM.

With `CC(C)c1ncc2n1NC1=N[C@@H](c3ccc(Cl)cc3)CN1C2=O` [Example 137, (2S)-2-(4-Chlorophenyl)-8-isopropyl-2,10-dihydro-3H,5H-diimidazo[2,1-c:5′,1′-f][1,2,4]triazin-5-one], the 50% inhibitory concentration (IC50) was less than 1 µM.
